From ChEMBL document CHEMBL1201862, “PubChem BioAssay data set” (2004)
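A five-concentration, 48-hour dose response in 96-well plates underlies each endpoint, interpolated linearly between surrounding concentrations. At the GI50, growth is halved.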 Calls of active or inactive are those of the source. Cut-off read from the data, not from the text of the source: active = GI50 up to about 1.1 µM and inactive = higher.

Experiments:
Test in all cases: growth of human tumour cells (NCI), 48 h
[1] = tested on: COLO 205
[2] = tested on: HCT-15
[3] = tested on: KM12
[4] = tested on: M14
[5] = tested on: M19-MEL
[6] = tested on: NCI-H226
[7] = tested on: OVCAR-3
[8] = tested on: OVCAR-8
[9] = tested on: RXF 393
[10] = tested on: SK-MEL-28
[11] = tested on: SK-OV-3
[12] = tested on: SN12C
[13] = tested on: SW-620
[14] = tested on: UACC-257
[15] = tested on: CAKI-1
[16] = tested on: TK-10
[17] = tested on: BT-549
[18] = tested on: Hs-578T
[19] = tested on: MDA-N
[20] = tested on: T47D

Compound	GI50 [1]	GI50 [2] [µM]	GI50 [3]	GI50 [4]	GI50 [5]	GI50 [6]	GI50 [7]	GI50 [8]	GI50 [9]	GI50 [10]	GI50 [11]	GI50 [12]	GI50 [13]	GI50 [14]	GI50 [15]	GI50 [16]	GI50 [17]	GI50 [18]	GI50 [19]	GI50 [20]
O=C1CCC2(c3ccc(F)cc3)Nc3cc(Cl)ccc3N12 (stereo unspecified)	> 100 µM (inactive)	> 100	> 100 µM (inactive)	> 100 µM (inactive)	> 100 µM (inactive)	38.5 µM (inactive)	86.5 µM (inactive)	> 100 µM (inactive)	88.9 µM (inactive)	> 100 µM (inactive)	> 100 µM (inactive)	> 100 µM (inactive)	> 100 µM (inactive)	90.4 µM (inactive)						
CCC1CCC2CCCC(C)N12 (stereo unspecified)	> 100 µM (inactive)	> 100	> 100 µM (inactive)	> 100 µM (inactive)	> 100 µM (inactive)	> 100 µM (inactive)	> 100 µM (inactive)	> 100 µM (inactive)		> 100 µM (inactive)		> 100 µM (inactive)	> 100 µM (inactive)	> 100 µM (inactive)	> 100 µM (inactive)	> 100 µM (inactive)				
CC(=O)NNc1ncc(C(=O)/C=C/c2ccccc2C)s1	> 100 µM (inactive)		> 100 µM (inactive)		> 100 µM (inactive)		> 100 µM (inactive)	> 100 µM (inactive)	> 100 µM (inactive)	> 100 µM (inactive)	> 100 µM (inactive)		> 100 µM (inactive)	> 100 µM (inactive)	> 100 µM (inactive)	> 100 µM (inactive)				
COc1ccc(OC)c([N+](=O)[O-])c1-c1nc2sccn2c1/C=N/N=C(N)N	29 µM (inactive)	> 100	27.6 µM (inactive)	> 100 µM (inactive)		> 100 µM (inactive)	58.1 µM (inactive)	> 100 µM (inactive)	> 100 µM (inactive)	17.7 µM (inactive)	61.7 µM (inactive)	> 100 µM (inactive)	93.3 µM (inactive)	69.5 µM (inactive)	> 100 µM (inactive)	51.4 µM (inactive)	53.2 µM (inactive)	26.7 µM (inactive)	49.8 µM (inactive)	66.1 µM (inactive)
C=C1C(=O)OC2CC1C(OC(=O)/C=C/c1ccccc1)C/C(C)=C/CC/C(C)=C/CCC2(C)O (stereo unspecified)	3.41 µM (inactive)	0.889	1.71 µM (inactive)	1.64 µM (inactive)		1.64 µM (inactive)	1.52 µM (inactive)	1.75 µM (inactive)	1.34 µM (inactive)	2.3 µM (inactive)	2.19 µM (inactive)	1.57 µM (inactive)	1.04 µM (active)	1.87 µM (inactive)	1.46 µM (inactive)	1.65 µM (inactive)	1.05 µM (active)	2.19 µM (inactive)	1.38 µM (inactive)	3.47 µM (inactive)
O=C(OCCNC(=O)N1CC1)OCCNC(=O)N1CC1	> 10 µM (inactive)	> 10	> 10 µM (inactive)	> 10 µM (inactive)		> 10 µM (inactive)	> 10 µM (inactive)	> 10 µM (inactive)	> 10 µM (inactive)	> 10 µM (inactive)	> 10 µM (inactive)	> 10 µM (inactive)	> 10 µM (inactive)	> 10 µM (inactive)	> 10 µM (inactive)	> 10 µM (inactive)	> 10 µM (inactive)	> 10 µM (inactive)	> 10 µM (inactive)	> 10 µM (inactive)
CC(=O)O[C@H]1CC2C=CC3C(CCC31)O2 (stereo partly specified)	> 100 µM (inactive)	> 100		> 100 µM (inactive)	> 100 µM (inactive)		> 100 µM (inactive)	> 100 µM (inactive)	> 100 µM (inactive)	> 100 µM (inactive)	> 100 µM (inactive)	> 100 µM (inactive)	> 100 µM (inactive)		> 100 µM (inactive)	> 100 µM (inactive)				
N#CC(/C(=N/NC(N)=S)C(=O)Nc1cccc(Cl)c1)c1ccccc1 (stereo unspecified)	> 100 µM (inactive)	> 100	> 100 µM (inactive)	> 100 µM (inactive)	> 100 µM (inactive)	> 100 µM (inactive)	> 100 µM (inactive)	> 100 µM (inactive)		> 100 µM (inactive)	> 100 µM (inactive)	> 100 µM (inactive)	> 100 µM (inactive)	> 100 µM (inactive)	> 100 µM (inactive)	> 100 µM (inactive)				
COC(=O)C1C(=O)C(C(=O)OC)C2CCC1N2C (stereo unspecified)	> 100 µM (inactive)	1.84	> 100 µM (inactive)	29.8 µM (inactive)		36.2 µM (inactive)	18.3 µM (inactive)	27.9 µM (inactive)	24.9 µM (inactive)	34.4 µM (inactive)	28.4 µM (inactive)	32.1 µM (inactive)	36.5 µM (inactive)	83.4 µM (inactive)	92.5 µM (inactive)	62.4 µM (inactive)	0.628 µM (active)	52.2 µM (inactive)	23.8 µM (inactive)	30.7 µM (inactive)
COc1cc(Cc2cnc(N)nc2N)cc(OC)c1OCCCNc1ccc([N+](=O)[O-])cc1	12.2 µM (inactive)	14.6	14.4 µM (inactive)	6.35 µM (inactive)		13.4 µM (inactive)	14.5 µM (inactive)	14.3 µM (inactive)	10.4 µM (inactive)	13.9 µM (inactive)	31.5 µM (inactive)	16.3 µM (inactive)	15.1 µM (inactive)	11.9 µM (inactive)	33.2 µM (inactive)	14.3 µM (inactive)	10.5 µM (inactive)	18.5 µM (inactive)	16.2 µM (inactive)	8.07 µM (inactive)
CC1(C)OC[C@@H](C[C@H](O)COCc2ccccc2)O1	> 100 µM (inactive)	> 100	> 100 µM (inactive)	> 100 µM (inactive)		> 100 µM (inactive)	> 100 µM (inactive)	> 100 µM (inactive)	> 100 µM (inactive)	> 100 µM (inactive)	> 100 µM (inactive)	> 100 µM (inactive)	> 100 µM (inactive)	> 100 µM (inactive)	> 100 µM (inactive)	> 100 µM (inactive)	> 100 µM (inactive)	> 100 µM (inactive)	> 100 µM (inactive)	> 100 µM (inactive)
CN(C)c1ccc(/C=C2\N=C(NN)NC2=O)cc1	> 100 µM (inactive)	50.8	41.1 µM (inactive)	> 100 µM (inactive)		78.2 µM (inactive)	86.3 µM (inactive)	55 µM (inactive)	63.5 µM (inactive)	> 100 µM (inactive)	> 100 µM (inactive)	> 100 µM (inactive)	98.2 µM (inactive)	> 100 µM (inactive)	> 100 µM (inactive)	> 100 µM (inactive)	> 100 µM (inactive)	> 100 µM (inactive)	73.8 µM (inactive)	44.4 µM (inactive)
CCN(CC)CCNC(=O)c1cn2c(ccc3sc4ccccc4c(=O)c32)n1	6.25 µM (inactive)	5.21	12.2 µM (inactive)	15.1 µM (inactive)		13.3 µM (inactive)	12.8 µM (inactive)	12.3 µM (inactive)	8.22 µM (inactive)	10.4 µM (inactive)	12.1 µM (inactive)	9.33 µM (inactive)	6.25 µM (inactive)	14.3 µM (inactive)	10 µM (inactive)	14.4 µM (inactive)	13.8 µM (inactive)	15.3 µM (inactive)	14.1 µM (inactive)	14.5 µM (inactive)
CC(C)C1C(=O)NC(CO)Cc2c[nH]c3c(C(c4c[nH]c5ccccc45)C(O)CO)ccc(c23)N1C (stereo unspecified)	4.79 µM (inactive)		> 100 µM (inactive)	> 100 µM (inactive)	> 100 µM (inactive)		> 100 µM (inactive)	> 100 µM (inactive)	> 100 µM (inactive)	> 100 µM (inactive)	> 100 µM (inactive)	> 100 µM (inactive)	74.8 µM (inactive)	> 100 µM (inactive)		36.3 µM (inactive)				
O=C1CC[C@@H](NC(=O)Cc2ccccc2)C(=O)N1	> 100 µM (inactive)		> 100 µM (inactive)	> 100 µM (inactive)	> 100 µM (inactive)	> 100 µM (inactive)	> 100 µM (inactive)	> 100 µM (inactive)		> 100 µM (inactive)	> 100 µM (inactive)	> 100 µM (inactive)	> 100 µM (inactive)	> 100 µM (inactive)	> 100 µM (inactive)	> 100 µM (inactive)				
CCc1cccc(C)c1NC(=O)CCc1nnc(SC)o1	> 100 µM (inactive)	> 100	> 100 µM (inactive)	> 100 µM (inactive)	> 100 µM (inactive)		> 100 µM (inactive)	> 100 µM (inactive)	> 100 µM (inactive)	> 100 µM (inactive)	> 100 µM (inactive)	> 100 µM (inactive)	> 100 µM (inactive)	> 100 µM (inactive)	> 100 µM (inactive)	> 100 µM (inactive)				
Cc1cc(S(=O)(=O)Nc2nc(N)n(-c3ccccn3)n2)c(S)cc1Cl	> 100 µM (inactive)	> 100	> 100 µM (inactive)	> 100 µM (inactive)		> 100 µM (inactive)	> 100 µM (inactive)	> 100 µM (inactive)	> 100 µM (inactive)	> 100 µM (inactive)	> 100 µM (inactive)	> 100 µM (inactive)	> 100 µM (inactive)	> 100 µM (inactive)	> 100 µM (inactive)	> 100 µM (inactive)	> 100 µM (inactive)	75 µM (inactive)	> 100 µM (inactive)	> 100 µM (inactive)
